Reference: article PMC11752117 (Journal of Traditional and Complementary Medicine, 2024)

Assays:
Experiment in all cases: microbe, parasite or virus in culture
Type in all cases: cell-based
SARS-CoV-2 Alpha variant = conditions: Severe acute respiratory syndrome coronavirus 2, A549, 48 h, read-out: IC50, inhibition of SARS-CoV-2 infection, Alpha, A549-ACE2-TMPRSS2, 1.56 to 50 μM for 2 days, n = 2
SARS-CoV-2 Delta variant = conditions: Severe acute respiratory syndrome coronavirus 2, A549, 48 h, read-out: IC50, inhibition of SARS-CoV-2 infection
[1] = system: SARS-CoV-2 Omicron BA.2 variant; conditions: Severe acute respiratory syndrome coronavirus 2, A549, 48 h, read-out: IC50, inhibition of SARS-CoV-2 infection

C=C1CC[C@@H]2[C@](C)(CO)[C@H](O)CC[C@@]2(C)[C@@H]1C/C=C1/C(=O)OC[C@H]1O [Andrographolide, andrographolide]
IC50 (SARS-CoV-2 Alpha variant): 7.08 µM
IC50 (SARS-CoV-2 Delta variant): 7.35 µM
IC50 [1]: 4.62 µM
